Reference: PMC10838953

What was measured:
[1] = test system: RPTEC (renal proximal tubule epithelial cells); assay: cells; settings: Homo sapiens, read-out: IC50 cell viability
MLCK = MLCK (Homo sapiens, UniProt Q32MK0); assay: biochemical; settings: read-out: %Ctrl @ 2000nM
MEK1 = MEK1 (Homo sapiens, UniProt Q02750); assay: biochemical; settings: read-out: %Ctrl @ 2000nM
AKT3 = AKT3 (Homo sapiens, UniProt Q9Y243); assay: biochemical; settings: read-out: %Ctrl @ 2000nM
p38-gamma = p38-gamma (Homo sapiens, UniProt P53778); assay: biochemical; settings: read-out: %Ctrl @ 2000nM
KIT-autoinhibited = KIT-autoinhibited (Homo sapiens, UniProt P10721); assay: biochemical; settings: read-out: %Ctrl @ 2000nM
[2] = target: ABL1(F317I)-phosphorylated (Homo sapiens, UniProt P00519, F317I); assay: biochemical; settings: read-out: %Ctrl @ 2000nM
[3] = target: RSK3(Kin.Dom.2-C-terminal) (Homo sapiens, UniProt Q15349); assay: biochemical; settings: read-out: %Ctrl @ 2000nM
PIK3CA(M1043I) = PIK3CA(M1043I) (Homo sapiens, UniProt P42336, M1043I); assay: biochemical; settings: read-out: %Ctrl @ 2000nM
LZK = LZK (Homo sapiens, UniProt O43283); assay: biochemical; settings: read-out: %Ctrl @ 2000nM
EPHB3 = EPHB3 (Homo sapiens, UniProt P54753); assay: biochemical; settings: read-out: %Ctrl @ 2000nM
TRKB = TRKB (Homo sapiens, UniProt Q16620); assay: biochemical; settings: read-out: %Ctrl @ 2000nM
PIM3 = PIM3 (Homo sapiens, UniProt Q86V86); assay: biochemical; settings: read-out: %Ctrl @ 2000nM
MEK6 = MEK6 (Homo sapiens, UniProt P52564); assay: biochemical; settings: read-out: %Ctrl @ 2000nM
EGFR(L747-T751del,Sins) = EGFR(L747-T751del,Sins) (Homo sapiens, UniProt P00533, DEL747-750/T751S); assay: biochemical; settings: read-out: %Ctrl @ 2000nM
KIT(D816V) = KIT(D816V) (Homo sapiens, UniProt P10721, D816V); assay: biochemical; settings: read-out: %Ctrl @ 2000nM
p38-alpha = p38-alpha (Homo sapiens, UniProt Q16539); assay: biochemical; settings: read-out: %Ctrl @ 2000nM
WEE1 = WEE1 (Homo sapiens, UniProt P30291); assay: biochemical; settings: read-out: %Ctrl @ 2000nM
GAK = GAK (Homo sapiens, UniProt O14976); assay: biochemical; settings: read-out: %Ctrl @ 2000nM
MAP4K5 = MAP4K5 (Homo sapiens, UniProt Q9Y4K4); assay: biochemical; settings: read-out: %Ctrl @ 2000nM
LATS2 = LATS2 (Homo sapiens, UniProt Q9NRM7); assay: biochemical; settings: read-out: %Ctrl @ 2000nM
PLK1 = PLK1 (Homo sapiens, UniProt P53350); assay: biochemical; settings: read-out: %Ctrl @ 2000nM
CAMK2B = CAMK2B (Homo sapiens, UniProt Q13554); assay: biochemical; settings: read-out: %Ctrl @ 2000nM
SIK2 = SIK2 (Homo sapiens, UniProt Q9H0K1); assay: biochemical; settings: read-out: %Ctrl @ 2000nM
ZAK = ZAK (Homo sapiens, UniProt Q9NYL2); assay: biochemical; settings: read-out: %Ctrl @ 2000nM
ERK8 = ERK8 (Homo sapiens, UniProt Q8TD08); assay: biochemical; settings: read-out: %Ctrl @ 2000nM
PRKR = PRKR (Homo sapiens, UniProt P19525); assay: biochemical; settings: read-out: %Ctrl @ 2000nM
NEK7 = NEK7 (Homo sapiens, UniProt Q8TDX7); assay: biochemical; settings: read-out: %Ctrl @ 2000nM
PRKD3 = PRKD3 (Homo sapiens, UniProt O94806); assay: biochemical; settings: read-out: %Ctrl @ 2000nM
TYRO3 = TYRO3 (Homo sapiens, UniProt Q06418); assay: biochemical; settings: read-out: %Ctrl @ 2000nM
SGK2 = SGK2 (Homo sapiens, UniProt Q9HBY8); assay: biochemical; settings: read-out: %Ctrl @ 2000nM
NDR1 = NDR1 (Homo sapiens, UniProt Q15208); assay: biochemical; settings: read-out: %Ctrl @ 2000nM
[4] = target: RSK4(Kin.Dom.1-N-terminal) (Homo sapiens, UniProt Q9UK32); assay: biochemical; settings: read-out: %Ctrl @ 2000nM
HCK = HCK (Homo sapiens, UniProt P08631); assay: biochemical; settings: read-out: %Ctrl @ 2000nM
[5] = target: ABL1(F317L)-nonphosphorylated (Homo sapiens, UniProt P00519, F317L); assay: biochemical; settings: read-out: %Ctrl @ 2000nM
LOK = LOK (Homo sapiens, UniProt O94804); assay: biochemical; settings: read-out: %Ctrl @ 2000nM
CLK2 = CLK2 (Homo sapiens, UniProt P49760); assay: biochemical; settings: read-out: %Ctrl @ 2000nM
Chain of CLK2 (P49760 whole entry): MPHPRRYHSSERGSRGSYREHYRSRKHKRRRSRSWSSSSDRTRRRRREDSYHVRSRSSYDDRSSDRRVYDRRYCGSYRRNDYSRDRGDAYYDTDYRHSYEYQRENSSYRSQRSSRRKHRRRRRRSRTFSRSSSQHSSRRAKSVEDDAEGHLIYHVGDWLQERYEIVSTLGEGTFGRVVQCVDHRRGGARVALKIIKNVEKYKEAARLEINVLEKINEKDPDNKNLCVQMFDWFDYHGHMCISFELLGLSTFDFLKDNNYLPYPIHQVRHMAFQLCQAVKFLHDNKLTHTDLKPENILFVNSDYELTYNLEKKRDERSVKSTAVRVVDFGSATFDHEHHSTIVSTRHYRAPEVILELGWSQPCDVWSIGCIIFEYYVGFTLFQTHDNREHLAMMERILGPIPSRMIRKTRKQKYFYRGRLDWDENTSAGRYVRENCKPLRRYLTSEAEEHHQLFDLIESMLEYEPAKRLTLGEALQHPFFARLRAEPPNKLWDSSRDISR

Chain of EGFR(L747-T751del,Sins) (P00533 with tags, fused parts or gaps DEL747-750/T751S): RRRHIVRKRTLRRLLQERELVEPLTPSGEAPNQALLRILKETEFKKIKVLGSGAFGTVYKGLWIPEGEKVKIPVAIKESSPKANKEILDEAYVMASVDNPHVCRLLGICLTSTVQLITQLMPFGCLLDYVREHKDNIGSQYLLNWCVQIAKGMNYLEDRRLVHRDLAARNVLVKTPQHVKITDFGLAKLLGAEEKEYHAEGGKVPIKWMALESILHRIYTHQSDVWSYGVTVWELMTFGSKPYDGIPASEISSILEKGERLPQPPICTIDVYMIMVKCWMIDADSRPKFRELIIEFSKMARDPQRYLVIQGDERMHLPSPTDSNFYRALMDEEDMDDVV
Chain of KIT(D816V) (P10721 26-976 D816V): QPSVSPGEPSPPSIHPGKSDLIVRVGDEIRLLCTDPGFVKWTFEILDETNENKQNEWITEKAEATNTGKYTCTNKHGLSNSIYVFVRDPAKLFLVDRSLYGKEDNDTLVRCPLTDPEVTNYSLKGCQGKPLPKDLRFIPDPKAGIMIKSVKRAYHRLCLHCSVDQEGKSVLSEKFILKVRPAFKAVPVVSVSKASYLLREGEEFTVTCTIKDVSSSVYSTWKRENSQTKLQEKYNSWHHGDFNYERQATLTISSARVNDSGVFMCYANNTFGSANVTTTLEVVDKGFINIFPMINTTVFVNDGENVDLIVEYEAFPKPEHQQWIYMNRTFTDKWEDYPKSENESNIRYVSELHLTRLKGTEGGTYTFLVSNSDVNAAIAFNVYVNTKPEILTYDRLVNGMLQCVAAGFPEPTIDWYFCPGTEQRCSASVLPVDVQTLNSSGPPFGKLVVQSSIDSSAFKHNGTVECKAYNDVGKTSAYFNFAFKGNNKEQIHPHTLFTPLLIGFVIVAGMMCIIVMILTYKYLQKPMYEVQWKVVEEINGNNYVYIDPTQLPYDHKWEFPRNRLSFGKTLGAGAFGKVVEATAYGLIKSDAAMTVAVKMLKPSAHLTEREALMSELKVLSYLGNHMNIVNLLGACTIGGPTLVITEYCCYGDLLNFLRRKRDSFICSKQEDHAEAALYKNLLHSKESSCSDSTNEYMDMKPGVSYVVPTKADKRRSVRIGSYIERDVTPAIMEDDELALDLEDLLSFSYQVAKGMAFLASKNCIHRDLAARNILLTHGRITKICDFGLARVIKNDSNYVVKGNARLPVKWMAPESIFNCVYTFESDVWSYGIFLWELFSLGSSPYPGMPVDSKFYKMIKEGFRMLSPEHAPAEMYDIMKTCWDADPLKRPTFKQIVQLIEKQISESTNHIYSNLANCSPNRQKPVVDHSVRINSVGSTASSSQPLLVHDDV
Chain of HCK (P08631 whole entry): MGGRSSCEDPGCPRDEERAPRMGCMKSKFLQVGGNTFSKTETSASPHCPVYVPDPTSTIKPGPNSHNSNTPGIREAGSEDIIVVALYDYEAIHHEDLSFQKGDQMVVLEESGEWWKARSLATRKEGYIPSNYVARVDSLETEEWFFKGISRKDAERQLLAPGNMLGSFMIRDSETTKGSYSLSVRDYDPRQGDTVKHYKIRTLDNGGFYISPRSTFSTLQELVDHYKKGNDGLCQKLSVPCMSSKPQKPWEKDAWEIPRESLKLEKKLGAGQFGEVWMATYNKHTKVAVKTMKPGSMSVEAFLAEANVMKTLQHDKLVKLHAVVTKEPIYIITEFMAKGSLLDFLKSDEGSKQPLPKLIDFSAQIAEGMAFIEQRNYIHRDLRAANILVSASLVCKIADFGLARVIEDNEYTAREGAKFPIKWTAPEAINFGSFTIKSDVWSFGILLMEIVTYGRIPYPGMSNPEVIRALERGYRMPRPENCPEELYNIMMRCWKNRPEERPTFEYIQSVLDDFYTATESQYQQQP
Chain of p38-alpha (Q16539 whole entry): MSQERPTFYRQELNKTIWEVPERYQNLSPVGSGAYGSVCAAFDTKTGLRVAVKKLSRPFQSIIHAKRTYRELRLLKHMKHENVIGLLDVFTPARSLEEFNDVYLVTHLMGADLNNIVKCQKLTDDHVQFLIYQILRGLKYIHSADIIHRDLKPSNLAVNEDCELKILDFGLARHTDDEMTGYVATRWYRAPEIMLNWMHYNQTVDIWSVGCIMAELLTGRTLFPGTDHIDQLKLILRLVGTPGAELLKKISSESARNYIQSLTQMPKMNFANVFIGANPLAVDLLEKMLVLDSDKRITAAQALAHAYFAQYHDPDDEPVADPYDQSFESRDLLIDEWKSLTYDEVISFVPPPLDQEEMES
Chain of MAP4K5 (Q9Y4K4 whole entry): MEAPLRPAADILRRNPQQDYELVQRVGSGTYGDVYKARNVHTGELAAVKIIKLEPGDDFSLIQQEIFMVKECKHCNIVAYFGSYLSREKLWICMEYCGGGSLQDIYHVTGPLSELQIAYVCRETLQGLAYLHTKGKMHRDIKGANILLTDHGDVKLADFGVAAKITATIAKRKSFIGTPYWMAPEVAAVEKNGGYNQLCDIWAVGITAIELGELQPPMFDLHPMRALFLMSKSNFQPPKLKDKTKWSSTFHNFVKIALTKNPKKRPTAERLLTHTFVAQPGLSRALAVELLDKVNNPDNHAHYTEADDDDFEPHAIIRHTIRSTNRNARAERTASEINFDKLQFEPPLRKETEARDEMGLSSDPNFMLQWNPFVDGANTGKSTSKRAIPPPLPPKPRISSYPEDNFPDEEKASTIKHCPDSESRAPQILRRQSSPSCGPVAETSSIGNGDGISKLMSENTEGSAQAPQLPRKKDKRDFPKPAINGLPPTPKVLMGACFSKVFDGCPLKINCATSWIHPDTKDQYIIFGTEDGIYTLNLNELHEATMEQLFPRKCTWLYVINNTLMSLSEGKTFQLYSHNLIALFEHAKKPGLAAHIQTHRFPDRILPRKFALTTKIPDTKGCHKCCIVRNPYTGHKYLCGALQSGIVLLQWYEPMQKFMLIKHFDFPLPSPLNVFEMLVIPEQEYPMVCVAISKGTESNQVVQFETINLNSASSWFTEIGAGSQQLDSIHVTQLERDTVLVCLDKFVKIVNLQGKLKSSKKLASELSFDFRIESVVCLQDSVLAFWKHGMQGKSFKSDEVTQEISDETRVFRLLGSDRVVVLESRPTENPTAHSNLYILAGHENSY
Chain of CAMK2B (Q13554 whole entry): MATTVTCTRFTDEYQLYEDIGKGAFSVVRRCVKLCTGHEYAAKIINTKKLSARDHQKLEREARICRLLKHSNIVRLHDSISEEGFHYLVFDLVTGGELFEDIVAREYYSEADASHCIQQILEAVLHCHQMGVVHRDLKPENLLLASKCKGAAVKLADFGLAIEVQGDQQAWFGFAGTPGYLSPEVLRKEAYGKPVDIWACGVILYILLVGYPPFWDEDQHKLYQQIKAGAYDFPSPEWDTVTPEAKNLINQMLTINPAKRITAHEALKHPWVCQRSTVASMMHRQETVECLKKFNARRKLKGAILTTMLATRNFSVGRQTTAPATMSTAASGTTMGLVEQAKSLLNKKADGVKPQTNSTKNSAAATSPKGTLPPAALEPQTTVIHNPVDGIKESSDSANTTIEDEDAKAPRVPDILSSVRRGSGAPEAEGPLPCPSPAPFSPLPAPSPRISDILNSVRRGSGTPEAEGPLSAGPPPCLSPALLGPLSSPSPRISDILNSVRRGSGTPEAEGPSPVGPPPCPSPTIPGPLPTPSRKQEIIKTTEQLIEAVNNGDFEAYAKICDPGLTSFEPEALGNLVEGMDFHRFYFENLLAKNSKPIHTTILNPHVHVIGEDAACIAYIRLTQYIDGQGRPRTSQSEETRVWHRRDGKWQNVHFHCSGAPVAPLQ
Chain of RSK3(Kin.Dom.2-C-terminal) (Q15349 389-733 limits assumed): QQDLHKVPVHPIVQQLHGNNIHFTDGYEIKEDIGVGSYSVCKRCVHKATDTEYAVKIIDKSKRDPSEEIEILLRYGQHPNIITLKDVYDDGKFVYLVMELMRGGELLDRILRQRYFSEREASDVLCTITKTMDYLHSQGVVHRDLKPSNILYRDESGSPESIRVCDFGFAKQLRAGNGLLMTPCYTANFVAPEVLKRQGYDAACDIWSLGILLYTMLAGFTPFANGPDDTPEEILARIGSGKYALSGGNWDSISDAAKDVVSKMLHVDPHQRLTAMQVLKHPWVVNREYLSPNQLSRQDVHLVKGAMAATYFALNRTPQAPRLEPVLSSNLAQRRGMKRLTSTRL
Chain of NDR1 (Q15208 whole entry): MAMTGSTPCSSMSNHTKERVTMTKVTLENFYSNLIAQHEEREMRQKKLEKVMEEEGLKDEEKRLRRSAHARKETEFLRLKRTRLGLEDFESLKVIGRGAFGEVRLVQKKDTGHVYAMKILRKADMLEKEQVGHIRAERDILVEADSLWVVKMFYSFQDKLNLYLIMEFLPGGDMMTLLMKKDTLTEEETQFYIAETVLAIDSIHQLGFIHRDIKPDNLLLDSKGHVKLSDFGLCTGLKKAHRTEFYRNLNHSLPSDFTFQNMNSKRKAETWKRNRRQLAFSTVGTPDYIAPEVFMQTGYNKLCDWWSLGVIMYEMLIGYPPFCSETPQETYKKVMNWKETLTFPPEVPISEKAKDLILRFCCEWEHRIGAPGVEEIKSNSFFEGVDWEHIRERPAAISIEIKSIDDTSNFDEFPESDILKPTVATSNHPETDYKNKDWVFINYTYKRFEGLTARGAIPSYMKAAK

## CC(C)COC(=O)c1[nH]c2ccc(F)cc2c1-c1cn(CC2CCN(CCNS(=O)(=O)c3ccc(CC(C)C)cc3)CC2)nn1 [AB668, isobutyl 5-fluoro-3-(1-((1-(2-((4-isobutylphenyl)sulfonamido)ethyl)piperidin-4-yl)methyl)-1H-1,2,3-triazol-4-yl)-1H-indole-2-carboxylate]
[1]
  IC50: > 100 µM
MLCK
  remaining activity at 2 µM: 100%
MEK1
  remaining activity at 2 µM: 97%
AKT3
  remaining activity at 2 µM: 92%
p38-gamma
  remaining activity at 2 µM: 74%
KIT-autoinhibited
  remaining activity at 2 µM: 96%
[2]
  remaining activity at 2 µM: 96%
[3]
  remaining activity at 2 µM: 85%
PIK3CA(M1043I)
  remaining activity at 2 µM: 100%
LZK
  remaining activity at 2 µM: 100%
EPHB3
  remaining activity at 2 µM: 80%
TRKB
  remaining activity at 2 µM: 87%
PIM3
  remaining activity at 2 µM: 85%
MEK6
  remaining activity at 2 µM: 83%
EGFR(L747-T751del,Sins)
  remaining activity at 2 µM: 86%
KIT(D816V)
  remaining activity at 2 µM: 95%
p38-alpha
  remaining activity at 2 µM: 87%
WEE1
  remaining activity at 2 µM: 96%
GAK
  remaining activity at 2 µM: 99%
MAP4K5
  remaining activity at 2 µM: 96%
LATS2
  remaining activity at 2 µM: 89%
786-O cells
  NES: Asymmetric localization of PCP proteins: -1.441
  NES: G1/S Transition: -1.326
  NES: G2/M Checkpoints: -1.7
  NES: G2/M Transition: -1.306
  NES: Infection with Mycobacterium tuberculosis: 1.8732
  NES: Innate Immune System: 1.345
  NES: Keratan sulfate/keratin metabolism: 1.522
  NES: Mitotic G1 phase and G1/S transition: -1.351
  NES: Mitotic G2-G2/M phases: -1.306
  NES: Response of Mtb to phagocytosis: 1.92
  NES: TBC/RABGAPs: 1.83
  NES: p53-Independent G1/S DNA damage checkpoint: -1.606
  enrichmentScore: Asymmetric localization of PCP proteins: -0.3931
  enrichmentScore: G1/S Transition: -0.3116
  enrichmentScore: G2/M Checkpoints: -0.3959
  enrichmentScore: G2/M Transition: -0.2924
  enrichmentScore: Infection with Mycobacterium tuberculosis: 0.7066
  enrichmentScore: Innate Immune System: 0.2817
  enrichmentScore: Mitotic G2-G2/M phases: -0.2924
  enrichmentScore: Response of Mtb to phagocytosis: 0.737
  enrichmentScore: TBC/RABGAPs: 0.6519
PLK1
  remaining activity at 2 µM: 100%
CAMK2B
  remaining activity at 2 µM: 96%
SIK2
  remaining activity at 2 µM: 100%
ZAK
  remaining activity at 2 µM: 100%
ERK8
  remaining activity at 2 µM: 53%
PRKR
  remaining activity at 2 µM: 75%
NEK7
  remaining activity at 2 µM: 93%
PRKD3
  remaining activity at 2 µM: 100%
TYRO3
  remaining activity at 2 µM: 100%
SGK2
  remaining activity at 2 µM: 98%
NDR1
  remaining activity at 2 µM: 93%
[4]
  remaining activity at 2 µM: 88%
HCK
  remaining activity at 2 µM: 96%
[5]
  remaining activity at 2 µM: 88%
LOK
  remaining activity at 2 µM: 100%
CLK2
  remaining activity at 2 µM: 98%
